Results reported in patent US8541411B2, “Benzimidazole derivatives as PI3 kinase inhibitors” (GlaxoSmithKline LLC, priority 2010, dated 2013).

Molecular target: T1, PI3Kβ (Homo sapiens, UniProt P42338)
T1 construct: made in house
Assay: HTRF in vitro profiling assay for PI3K inhibition, beta isoform
Type: biochemical
Details: one experimental run or average of two or more runs; 200 pM enzyme, 100 uM ATP, 10 uM PIP2; read-out: P13KB PIC50 MEAN (converted)
From the text: The PI3-Kinase profiling assays were developed to measure the compound-dependent inhibition of the alpha, beta, delta, and gamma isoforms of PI3K in an in vitro catalytic assay. This assay was developed and optimized from a kit produced by Upstate (Millipore catalog #33-017). Briefly, this procedure utilizes a pre-formed HTRF (Homogeneous Time-Resolved Fluorescence energy transfer) complex between four binding partners: 1) biotinylated PIP3, 2) GST tagged pleckstrin homology (PH) domain, 3) Europium labeled anti-GST monoclonal antibody, and 4) Streptavidin-Allophycocyanin (APC). The native PIP3 produced by PI 3-Kinase activity displaces biotin-PIP3 from the PH domain, resulting in the dissociation of the HTRF complex and a decrease in the fluorescence signal. The format of this assay is the same for all 4 isoforms of PI3K; the differences lie in the concentration of enzyme used to achieve the most robust signal. The alpha and delta assays are run at 400 pM enzyme; the beta assay is at 200 pM enzyme and the gamma assay is run at 1 nM enzyme. In addition, the alpha, beta and delta assays are run with 150 mM NaCl while the gamma assay is run in the absence of NaCl. The ATP concentration is 100 uM in the alpha, beta, and delta assays and 15 uM ATP in the gamma assay. All reactions are run at 10 uM PIP2
Compounds were serially diluted (3-fold in 100% DMSO) across a 384-well polypropylene mother plate from column 1 to column 12 and column 13 to column 24, to yield 11 concentrations for each test compound. Columns 6 and 18 contain only DMSO. Once titrations were made, 0.05 μL was transferred to a 384-well low-volume assay plate (Greiner 784076). This assay plate contained three pharmacological controls (known PI3K inhibitors) and 3 assay controls: (1) Enzyme without inhibitor; (2) Buffer minus enzyme, and (3) Buffer minus enzyme plus native PIP3. DMSO was stamped into all wells of columns 6 and 18. PIP3 was added at 40 μM in 1× Reaction buffer (1 μL of 200 μM PIP3) to alternating rows of column 18 (wells 18 B, D, F, H, J, L, N, P). The no-enzyme control reactions were run in wells 18 A, C, E, G, I, K, M, O (0.1 μL of 100% DMSO).
The PI3-Kinase profiling assay was optimized using the HTRF kit provided by Upstate (Millipore). The assay kit contained seven reagents: 1) 4× Reaction Buffer; 2) native PIP2 (substrate); 3) Stop A (EDTA); 4) Stop B (Biotin-PIP3); 5) Detection Mix A (Streptavidin-APC); 6) Detection Mix B (Eu-labeled Anti-GST plus GST-tagged PH-domain); 7) Detection Mix C (KF). In addition, the following items were obtained or purchased: PI3Kinase (prepared by GSK BR&AD), dithiothreitol (Sigma, D-5545), Adenosine-5′-triphosphate (ATP, Teknova cat. #A0220), native PIP3 (1,2-dioctanoyl-sn-glycero-3-[phosphoinositil-3,4,5-triphosphate]tetraammonium salt (Avanti polar lipids, 850186P), DMSO (Sigma, 472301).
PI3Kinase Reaction Buffer was prepared by diluting the stock 1:4 with de-ionized water. Freshly prepared DTT was added at a final concentration of 5 mM on the day of use. Enzyme addition and compound pre-incubation were initiated by the addition of 2.5 μL of PI3K (at twice its final concentration) in 1× reaction buffer to all wells using a Multidrop Combi. Plates were incubated at room temperature for 15 minutes. Reactions were initiated by addition of 2.5 μL of 2× substrate solution (PIP2 and ATP in 1× reaction buffer) using a Multidrop Combi. Plates were incubated at room temperature for one hour. Reactions were quenched by the addition of 2.5 μL of stop solution (Stop A and Stop B pre-mixed at a ratio of 5:1, respectively) to all wells using the Multidrop Combi.

T1 sequence (P42338 whole entry): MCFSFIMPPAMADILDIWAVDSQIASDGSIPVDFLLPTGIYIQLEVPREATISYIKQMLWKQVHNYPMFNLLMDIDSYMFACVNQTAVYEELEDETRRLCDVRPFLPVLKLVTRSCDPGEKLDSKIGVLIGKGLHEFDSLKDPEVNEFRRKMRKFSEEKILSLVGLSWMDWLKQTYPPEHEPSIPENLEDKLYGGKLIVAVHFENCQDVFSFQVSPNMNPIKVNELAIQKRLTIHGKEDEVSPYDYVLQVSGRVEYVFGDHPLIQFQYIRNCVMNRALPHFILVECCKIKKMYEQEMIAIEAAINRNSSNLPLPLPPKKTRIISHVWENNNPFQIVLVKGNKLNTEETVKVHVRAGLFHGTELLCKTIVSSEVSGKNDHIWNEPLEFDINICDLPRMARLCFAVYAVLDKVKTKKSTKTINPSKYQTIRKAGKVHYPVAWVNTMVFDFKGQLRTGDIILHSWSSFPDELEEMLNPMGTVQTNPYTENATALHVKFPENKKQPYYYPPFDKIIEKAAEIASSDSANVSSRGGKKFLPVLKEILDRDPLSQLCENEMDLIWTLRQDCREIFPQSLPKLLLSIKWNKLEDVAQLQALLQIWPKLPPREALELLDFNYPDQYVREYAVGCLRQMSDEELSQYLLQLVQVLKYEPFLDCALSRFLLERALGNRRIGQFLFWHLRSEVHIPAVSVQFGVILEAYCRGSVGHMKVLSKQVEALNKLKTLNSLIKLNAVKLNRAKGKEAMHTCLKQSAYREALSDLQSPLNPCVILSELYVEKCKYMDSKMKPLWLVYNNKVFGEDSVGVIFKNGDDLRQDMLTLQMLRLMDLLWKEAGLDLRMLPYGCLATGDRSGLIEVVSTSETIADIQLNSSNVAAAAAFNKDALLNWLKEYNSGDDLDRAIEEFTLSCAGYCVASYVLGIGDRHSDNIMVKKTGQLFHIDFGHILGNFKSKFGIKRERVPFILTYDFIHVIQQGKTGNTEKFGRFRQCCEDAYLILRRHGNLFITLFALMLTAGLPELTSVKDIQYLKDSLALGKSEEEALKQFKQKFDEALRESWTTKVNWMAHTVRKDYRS
T1 sequence (P27986 whole entry partner): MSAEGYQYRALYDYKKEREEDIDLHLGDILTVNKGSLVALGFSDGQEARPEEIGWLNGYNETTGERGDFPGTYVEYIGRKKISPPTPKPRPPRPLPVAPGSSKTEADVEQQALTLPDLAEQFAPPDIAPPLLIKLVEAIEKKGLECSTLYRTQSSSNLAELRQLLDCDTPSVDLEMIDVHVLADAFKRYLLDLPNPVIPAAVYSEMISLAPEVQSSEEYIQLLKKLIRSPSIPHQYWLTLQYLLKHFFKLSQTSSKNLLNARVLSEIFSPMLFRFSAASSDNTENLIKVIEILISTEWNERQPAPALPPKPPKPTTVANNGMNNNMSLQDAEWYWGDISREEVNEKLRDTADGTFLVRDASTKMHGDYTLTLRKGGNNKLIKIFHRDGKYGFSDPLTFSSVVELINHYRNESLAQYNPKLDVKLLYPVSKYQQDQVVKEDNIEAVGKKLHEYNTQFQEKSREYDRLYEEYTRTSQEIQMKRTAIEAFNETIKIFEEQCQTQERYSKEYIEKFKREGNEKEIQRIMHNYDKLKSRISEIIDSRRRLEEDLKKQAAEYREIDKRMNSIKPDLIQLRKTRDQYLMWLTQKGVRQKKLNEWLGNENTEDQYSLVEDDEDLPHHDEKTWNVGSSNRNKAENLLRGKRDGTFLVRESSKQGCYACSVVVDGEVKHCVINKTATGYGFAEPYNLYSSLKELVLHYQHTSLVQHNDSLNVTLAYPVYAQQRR

IC50 [nM]	Compound
200	CC(=O)Nc1cc(N2CCOCC2)cc2c1nc(C)n2Cc1cccc2ccccc12 [Example 3, N-(2-Methyl-6-morpholin-4-yl-1-naphthalen-1-ylmethyl-1H-benzoimidazol-4-yl)-acetamide]
1.58	Cc1nc2c(O)cc(N3CCOCC3)cc2n1Cc1cccc2ccccc12 [Example 5, 2-methyl-6-(4-morpholinyl)-1-(1-naphthalenylmethyl)-1H-benzimidazol-4-ol]
2.51	CCc1nc2c(F)cc(N3CCOCC3)cc2n1Cc1cccc2ccccc12 [Example 17, 2-ethyl-4-fluoro-6-(4-morpholinyl)-1-(1-naphthalenylmethyl)-1H-benzimidazole]
10	CCc1nc2c(F)cc(N3CCOCC3)cc2n1Cc1cccc(Cl)c1Cl [Example 18, 1-[(2,3-dichlorophenyl)methyl]-2-ethyl-4-fluoro-6-(4-morpholinyl)-1H-benzimidazole]
6.31	Cc1nc2c(C(=O)O)cc(N3CCOCC3)cc2n1Cc1cccc2ccccc12 [Example 20, 2-methyl-6-(4-morpholinyl)-1-(1-naphthalenylmethyl)-1H-benzimidazole-4-carboxylic acid]
0.251	Cc1nc2c(-c3nnc[nH]3)cc(N3CCOCC3)cc2n1Cc1cccc2ccccc12 [Example 25, 2-methyl-6-(4-morpholinyl)-1-(1-naphthalenylmethyl)-4-(1H-1,2,4-triazol-3-yl)-1H-benzimidazole]
12.6	Cc1nc2c(C#N)cc(N3CCOCC3)cc2n1Cc1cccc(Cl)c1Cl [Example 32, 1-[(2,3-dichlorophenyl)methyl]-2-methyl-6-(4-morpholinyl)-1H-benzimidazole-4-carbonitrile]
63.1	Cc1nc2c(C(=O)O)cc(N3CCOCC3)cc2n1Cc1cccc2cccnc12 [Example 35, 2-methyl-6-(4-morpholinyl)-1-(8-quinolinylmethyl)-1H-benzimidazole-4-carboxylic acid]
100	Cc1nc2c(C(=O)O)cc(N3CCOCC3)cc2n1Cc1ccc(Cl)c(Cl)c1 [Example 38, 1-[(3,4-dichlorophenyl)methyl]-2-methyl-6-(4-morpholinyl)-1H-benzimidazole-4-carboxylic acid]
0.631	Cc1c(Cn2c(C)nc3c(-c4nnc[nH]4)cc(N4CCOCC4)cc32)cccc1C(F)(F)F [Example 39, 2-methyl-1-{[2-methyl-3-(trifluoromethyl)phenyl]methyl}-6-(4-morpholinyl)-4-(1H-1,2,4-triazol-3-yl)-1H-benzimidazole]
1.58	CC(=O)c1cc(N2CCOCC2)cc2c1nc(C)n2Cc1cccc2ccccc12 [Example 41, 1-[2-methyl-6-(4-morpholinyl)-1-(1-naphthalenylmethyl)-1H-benzimidazol-4-yl]ethanone]
2.51	Cc1c(Cn2c(C(F)(F)F)nc3c(C(N)=O)cc(N4CCOCC4)cc32)cccc1C(F)(F)F [Example 54, 1-{[2-methyl-3-(trifluoromethyl)phenyl]methyl}-6-(4-morpholinyl)-2-(trifluoromethyl)-1H-benzimidazole-4-carboxamide]
1	Cc1c(Cn2c(C)nc3c(Br)cc(N4CCOCC4)cc32)cccc1C(F)(F)F [Example 63, 4-bromo-2-methyl-1-{[2-methyl-3-(trifluoromethyl)phenyl]methyl}-6-(4-morpholinyl)-1H-benzimidazole]
1.58	Cc1c(Cl)cccc1Cn1c(C(F)F)nc2c(C(=O)O)cc(N3CCOCC3)cc21 [Example 72, 1-[(3-chloro-2-methylphenyl)methyl]-2-(difluoromethyl)-6-(4-morpholinyl)-1H-benzimidazole-4-carboxylic acid]

The remaining lines, values behind:

Compound	IC50 [nM]
CC(C)c1nc2c(O)cc(N3CCOCC3)cc2n1Cc1cccc2ccccc12 [Example 11, 2-(1-methylethyl)-6-(4-morpholinyl)-1-(1-naphthalenylmethyl)-1H-benzimidazol-4-ol]	2
CC(C)c1nc2c(O)cc(N3CCOCC3)cc2n1Cc1cccc(Cl)c1Cl [Example 13, 1-[(2,3-dichlorophenyl)methyl]-2-(1-methylethyl)-6-(4-morpholinyl)-1H-benzimidazol-4-ol]	7.94
CCc1nc2c(O)cc(N3CCOCC3)cc2n1Cc1cccc(Cl)c1Cl [Example 14, 1-[(2,3-dichlorophenyl)methyl]-2-ethyl-6-(4-morpholinyl)-1H-benzimidazol-4-ol]	3.16
Cc1nc2c(F)cc(N3CCOCC3)cc2n1Cc1cccc2ccccc12 [Example 15, 4-fluoro-2-methyl-6-(4-morpholinyl)-1-(1-naphthalenylmethyl)-1H-benzimidazole]	1
Cc1nc2c(C(=O)O)cc(N3CCOCC3)cc2n1Cc1cccc(Cl)c1Cl [Example 22, 1-[(2,3-dichlorophenyl)methyl]-2-methyl-6-(4-morpholinyl)-1H-benzimidazole-4-carboxylic acid]	15.8
Cc1c(Cn2c(C)nc3c(CO)cc(N4CCOCC4)cc32)cccc1C(F)(F)F [Example 43, [2-methyl-1-{[2-methyl-3-(trifluoromethyl)phenyl]methyl}-6-(4-morpholinyl)-1H-benzimidazol-4-yl]methanol]	5.01
O=C(O)c1cc(N2CCOCC2)cc2c1nc(C(F)(F)F)n2Cc1cccc2ccccc12 [Example 50, 6-(4-morpholinyl)-1-(1-naphthalenylmethyl)-2-(trifluoromethyl)-1H-benzimidazole-4-carboxylic acid]	1.26
Cc1c(Cl)cccc1Cn1c(C(F)(F)F)nc2c(C(=O)O)cc(N3CCOCC3)cc21 [Example 53, 1-[(3-chloro-2-methylphenyl)methyl]-6-(4-morpholinyl)-2-(trifluoromethyl)-1H-benzimidazole-4-carboxylic acid]	0.501
Cc1nc2c(-c3nnn[nH]3)cc(N3CCOCC3)cc2n1Cc1cccc2ccccc12 [Example 58, 2-methyl-6-(4-morpholinyl)-1-(1-naphthalenylmethyl)-4-(1H-tetrazol-5-yl)-1H-benzimidazole]	6.31
Cc1c(Cl)cccc1Cn1c(C)nc2c(C(=O)O)cc(N3CCOCC3)cc21 [Example 59, 1-[(3-chloro-2-methylphenyl)methyl]-2-methyl-6-(4-morpholinyl)-1H-benzimidazole-4-carboxylic acid]	6.31
Cc1c(Cn2c(C(F)F)nc3c(C(=O)O)cc(N4CCOCC4)cc32)cccc1C(F)(F)F [Example 70, 2-(difluoromethyl)-1-{[2-methyl-3-(trifluoromethyl)phenyl]methyl}-6-(4-morpholinyl)-1H-benzimidazole-4-carboxylic acid]	0.2
Cc1nc2c(C(=O)O)cc(N3CCOCC3)cc2n1Cc1cccc2ccsc12 [Example 73, 1-(1-benzothien-7-ylmethyl)-2-methyl-6-(4-morpholinyl)-1H-benzimidazole-4-carboxylic acid]	25.1
